Our source for the pest or weed control values is US10252989B2, “Picolinamides with fungicidal activity” (DOW AGROSCIENCES LLC, priority 2014, dated 2019).

In one experiment the test system is Zymoseptoria tritici. As to the kind of experiment: Fungicidal activity: leaf blotch of wheat (SEPTTR), disease control on wheat seedlings. Type of experiment: in vivo. The settings on record: for pest or weed control at 121.5 g/ha: Low-volume cereal activity at 121.5 g/H, wheat leaf blotch. On the procedure: (§1) All fungicides were evaluated using the aforementioned method for their activity vs. all target diseases. Wheat leaf blotch and brown rust activity were also evaluated using track spray applications, in which case the fungicides were formulated as EC formulations, containing 0.1% Trycol 5941 in the spray solutions. Wheat plants (variety Yuma) were grown from seed in a greenhouse in 50% mineral soil/50% soil-less Metro mix until the first leaf was fully emerged, with 7-10 seedlings per pot. These plants were inoculated with an aqueous spore suspension of Zymoseptoria tritici either prior to or after fungicide treatments. After inoculation the plants were kept in 100% relative humidity (one day in a dark dew chamber followed by two to three days in a lighted dew chamber at 20° C.) to permit spores to germinate and infect the leaf. The plants were then transferred to a greenhouse set at 20° C. for disease to develop. When disease symptoms were fully expressed on the 1st leaves of untreated plants, infection levels were assessed on a scale of 0 to 100 percent disease severity. Percent disease control was calculated using the ratio of disease severity on treated plants relative to untreated plants.

A further experiment deals with Puccinia triticina. As to the kind of experiment: Fungicidal activity: wheat brown rust (PUCCRT), disease control on wheat seedlings. Type of experiment: in vivo. The following applies: Low-volume cereal activity at 121.5 g/H. On the procedure: as §1, with “plants. Example B: Evaluation of Fungicidal Activity: Wheat Brown Rust (Puccinia triticina; Synonym: Puccinia recondita f. sp. tritici; Bayer code PUCCRT) Wheat plants (variety Yuma) were grown from seed in a greenhouse in 50% mineral soil/50% soil-less Metro mix until the first leaf was fully emerged, with 7-10 seedlings per pot. These plants were inoculated with an aqueous spore suspension of Puccinia triticina either prior to or after fungicide treatments. […] The plants were then transferred to a greenhouse set at 24° C. for disease to develop. Fungicide formulation, application and disease assessment followed the procedures as described in the Example A.” for “plants.”

The mark [1] stands for this setting: 24 h, 1 Day Protectant, read-out: PUCCRT 1DP disease control rating.
The mark [2] stands for this setting: 72 h, 3 Day Curative, read-out: PUCCRT 3DC disease control rating.
Where [3] appears, read: 24 h, 1 Day Protectant, read-out: SEPTTR 1DP disease control rating.
[4] abbreviates: 72 h, 3 Day Curative, read-out: SEPTTR 3DC disease control rating.

Read-outs that look alike come from different tables or passages of the source.

With `COc1ccnc(C(=O)N[C@@H](C)C(=O)O[C@@H](C)[C@H](Cc2ccccc2)c2ccccc2)c1O` [Compound 119], the pest or weed control at 100 ppm in the experiment on Zymoseptoria tritici (72 h, High-volume cereal activity at 100 ppm, 3 Day Curative, wheat seedlings, read-out: SEPTTR 3DC disease control rating) was 0 to 80%.
Consider `CC[C@H](NC(=O)c1nccc(OC)c1OC(C)=O)C(=O)O[C@@H](C)C(Cc1ccc(OC)cc1)Cc1ccc(OC)cc1` [Compound 273], for which the pest or weed control at 121.5 g/ha was in the range of 0 to 80% with Puccinia triticina (setting [1]), 0 to 80% in the experiment with Puccinia triticina (setting [2]), 80 to 100% in the experiment with Zymoseptoria tritici (setting [3]) and 0 to 80% with Zymoseptoria tritici (setting [4]).
Take `CCCC[C@@H]([C@H](C)OC(=O)[C@H](C)NC(=O)c1nccc(OC)c1OC(C)=O)[C@@H](CC)Oc1ccccc1` [Compound 190]: the pest or weed control at 121.5 g/ha with Puccinia triticina (setting [1]), with Puccinia triticina (setting [2]), in the experiment on Zymoseptoria tritici (setting [3]) and with Zymoseptoria tritici (setting [4]) was 80 to 100% in each case.
